For experiment [1], the system named is non-small cell lung cancer cell line A549. As to the kind of experiment: CellTiter-Glo tumor cell proliferation, A549. The class given is cell-based, human. The following applies: 72 h; for inhibition at 1 µM / inhibition at 10 µM: read-out: Inhibition rate A549 (%); for IC50: CellTiter-Glo. Here is the method: (§1) The effect of compounds on tumor cell proliferation was detected by CellTiter-Glo method. Human melanoma cell line A375, non-small cell lung cancer cell line A549, human lung adenocarcinoma cell line H1299, colorectal cancer cell line HCT116, liver cancer cell line HepG2 and gastric cancer cell line MGC80-3 were cultured in vitro. The cells were collected after growing to the logarithmic growth phase, centrifuged at 1000 rpm for 5 min, and suspended in an appropriate amount of medium after discarding the supernatant, and the cell concentration was adjusted to 2×10^4/mL. The cell suspension was inoculated onto the 384-well cell culture plate, with 50 μL per well. After being cultured in a cell incubator (37° C., 5% CO2) for 24 h, 5 μL of drug diluted by the cell culture medium was added into each well for the treatment group. Each drug was provided in triplicate. After 72 h incubation in the incubator, 20 μL of CellTiter-Glo was added into each well, and the relative luminescence unit (RLU) was measured with Multimode Microplate Reader Varioskan Flash (Thermo Scientific, USA) after placed at 37° C. for 20 min, and compared with the RLU of the control group. SigmaPlot 10.0 software was used to calculate the inhibition rate and IC50 value.

Experiment [2] deals with Human melanoma cell line A375. Briefly: CellTiter-Glo tumor cell proliferation, A375. The class given is cell-based. To be noted: 72 h; for inhibition at 1 µM / inhibition at 10 µM: read-out: Inhibition rate A375 (%); for IC50: CellTiter-Glo. Here is the method: as §1
Experiment [3] deals with colorectal cancer cell line HCT116. As to the kind of experiment: CellTiter-Glo tumor cell proliferation, HCT116. The class given is cell-based, human. To be noted: 72 h; for inhibition at 1 µM / inhibition at 10 µM: read-out: Inhibition rate HCT116 (%); for IC50: CellTiter-Glo. As to the method: as §1

Consider `CC(C)C[C@H](NC(=O)Cn1nc(-c2cccc(OS(=O)(=O)c3cccc(C(F)(F)F)c3)c2)cc1-c1ccccc1)B(O)O` [Compound 11, (R)-(3-methyl-1-(2-(5-phenyl-3-(3-(((3-(trifluoromethyl)phenyl)sulfonyl)oxy)phenyl)-1H-pyrazol-1-yl)acetamido)butyl)boronic acid], for which the inhibition at 1 µM in experiment [1] (Homo sapiens, A549) was 63.4%; in experiment [2] (Homo sapiens, A-375) it was 90.2%; in experiment [3] (Homo sapiens, HCT-116), 95.4%. The inhibition at 10 µM was determined as 90.3% in experiment [1] (Homo sapiens, A549); 98.8% in experiment [2] (Homo sapiens, A-375); 98.4% in experiment [3] (Homo sapiens, HCT-116). The IC50 in experiment [1] (Homo sapiens, A549) amounted to 1.06 µM; in experiment [2] (Homo sapiens, A-375) it was 2.6 µM; in experiment [3] (Homo sapiens, HCT-116), 0.7 µM.
As to `CC(C)C[C@H](NC(=O)Cn1nc(-c2ccccc2OS(=O)(=O)c2cccc(C(F)(F)F)c2)cc1-c1ccc(F)cc1)B(O)O` [Compound 16, (R)-(1-(2-(5-(4-fluorophenyl)-3-(2-(((3-(trifluoromethyl)phenyl)sulfonyl)oxy)phenyl)-1H-pyrazol-1-yl)acetamido)-3-methylbutyl)boronic acid], the inhibition at 1 µM in experiment [1] (Homo sapiens, A549) is 1.6%; in experiment [2] (Homo sapiens, A-375) it was 14.2%; in experiment [3] (Homo sapiens, HCT-116) it was 8.3%. For the same compound, the inhibition at 10 µM in experiment [1] (Homo sapiens, A549) was found to be 36.9%; in experiment [2] (Homo sapiens, A-375), 91.9%; in experiment [3] (Homo sapiens, HCT-116) it was 93.8%.
Consider `CC(C)C[C@H](NC(=O)Cn1nc(-c2ccccc2OS(=O)(=O)c2cccc(Br)c2)cc1-c1ccccc1)B(O)O` [Compound 6, (R)-(1-(2-(3-(2-(((3-bromophenyl)sulfonyl)oxy)phenyl)-5-phenyl-1H-pyrazol-1-yl)-acetamido)-3-methylbutyl)boronic acid], for which the inhibition at 1 µM in experiment [1] (Homo sapiens, A549) came out at 13.3%; in experiment [2] (Homo sapiens, A-375) it was 7%; in experiment [3] (Homo sapiens, HCT-116) it was 5.9%. In addition, the inhibition at 10 µM in experiment [1] (Homo sapiens, A549) stood at 64.7%; in experiment [2] (Homo sapiens, A-375), 95%; in experiment [3] (Homo sapiens, HCT-116), 97%.
For the compound `Cc1cccc(S(=O)(=O)Oc2ccccc2-c2cc(-c3ccccc3)n(CC(=O)N[C@@H](CC(C)C)B(O)O)n2)c1` [Compound 8, (R)-(3-methyl-1-(2-(5-phenyl-3-(2-((m-tolylsulfonyl)oxy)phenyl)-1H-pyrazol-1-yl)acetamido)butyl)boronic acid], the inhibition at 1 µM in experiment [1] (Homo sapiens, A549) was determined as 2.9%; in experiment [2] (Homo sapiens, A-375) it was 1.8%; in experiment [3] (Homo sapiens, HCT-116) it was 2.1%. Also, the inhibition at 10 µM was 73.4% in experiment [1] (Homo sapiens, A549); 98.9% in experiment [2] (Homo sapiens, A-375); 98.5% in experiment [3] (Homo sapiens, HCT-116).
For the compound `CC(C)C[C@H](NC(=O)Cn1nc(-c2ccccc2OS(=O)(=O)c2ccccc2C(F)(F)F)cc1-c1ccccc1)B(O)O` [Compound 3, (R)-(3-methyl-1-(2-(5-phenyl-3-(2-(((2-(trifluoromethyl)phenyl)sulfonyl)oxy)phenyl)-1H-pyrazol-1-yl)acetamido)butyl)boronic acid], the inhibition at 1 µM in experiment [1] (Homo sapiens, A549) amounted to 17.1%; in experiment [2] (Homo sapiens, A-375), 5.7%; in experiment [3] (Homo sapiens, HCT-116), 3%. Also, the inhibition at 10 µM came out at 60.6% in experiment [1] (Homo sapiens, A549); 98.2% in experiment [2] (Homo sapiens, A-375); 97.8% in experiment [3] (Homo sapiens, HCT-116).
For the compound `COc1ccc(-c2cc(-c3ccccc3OS(=O)(=O)c3cccc(C(F)(F)F)c3)nn2CC(=O)N[C@@H](CC(C)C)B(O)O)cc1` [Compound 21, (R)-(1-(2-(5-(4-methoxyphenyl)-3-(2-(((3-(trifluoromethyl)phenyl)sulfonyl)oxy)phenyl)-1H-pyrazol-1-yl)acetamido)-3-methylbutyl)boronic acid], the inhibition at 1 µM came out at 4.4% in experiment [1] (Homo sapiens, A549); 2% in experiment [2] (Homo sapiens, A-375); 11.4% in experiment [3] (Homo sapiens, HCT-116). For the same compound, the inhibition at 10 µM was determined as 6.4% in experiment [1] (Homo sapiens, A549); 44.1% in experiment [2] (Homo sapiens, A-375); 62.2% in experiment [3] (Homo sapiens, HCT-116).
On to `CC(C)C[C@H](NC(=O)Cn1nc(-c2ccccc2OS(=O)(=O)c2cccc(C(F)(F)F)c2)cc1-c1ccc(S(C)(=O)=O)cc1)B(O)O` [Compound 19, (R)-(1-(2-(5-(4-(methylsulfonyl)phenyl)-3-(2-(((3-(trifluoromethyl)phenyl)sulfonyl)oxy)phenyl)-1H-pyrazol-1-yl)acetamido)-3-methylbutyl)boronic acid], for which the inhibition at 1 µM in experiment [1] (Homo sapiens, A549) turned out to be 8.7%; in experiment [2] (Homo sapiens, A-375) it was 4.1%; in experiment [3] (Homo sapiens, HCT-116), 14.5%. Moreover, the inhibition at 10 µM in experiment [1] (Homo sapiens, A549) turned out to be 7.9%; in experiment [2] (Homo sapiens, A-375), 45.2%; in experiment [3] (Homo sapiens, HCT-116), 33.9%.
Regarding `CC(C)[C@H](NC(=O)Cn1nc(-c2ccccc2OS(=O)(=O)c2cccc(C(F)(F)F)c2)cc1-c1ccccc1Br)B(O)O` [Compound 15, (R)-(1-(2-(5-(2-bromophenyl)-3-(2-(((3-trifluoromethylphenyl)sulfonyl)oxy)phenyl)-1H-pyrazol-1-yl)acetamido)isobutyl)boronic acid], the inhibition at 1 µM in experiment [1] (Homo sapiens, A549) is 7.5%; in experiment [2] (Homo sapiens, A-375), 3%; in experiment [3] (Homo sapiens, HCT-116), 5%. Also, the inhibition at 10 µM in experiment [1] (Homo sapiens, A549) is 1.5%; in experiment [2] (Homo sapiens, A-375), 67.2%; in experiment [3] (Homo sapiens, HCT-116), 3.6%.
Turning to `CC(C)C[C@H](NC(=O)Cn1nc(-c2ccccc2OS(=O)(=O)c2cccc(C(F)(F)F)c2)cc1-c1ccc(C#N)cc1)B(O)O` [Compound 18, (R)-(1-(2-(5-(4-cyanophenyl)-3-(2-(((3-(trifluoromethyl)phenyl)sulfonyl)oxy)phenyl)-1H-pyrazol-1-yl)acetamido)-3-methylbutyl)boronic acid], the inhibition at 1 µM in experiment [1] (Homo sapiens, A549) turned out to be 7.1%; in experiment [2] (Homo sapiens, A-375), 4.6%; in experiment [3] (Homo sapiens, HCT-116), 5.5%. For the same compound, the inhibition at 10 µM in experiment [1] (Homo sapiens, A549) stood at 29%; in experiment [2] (Homo sapiens, A-375), 81.1%; in experiment [3] (Homo sapiens, HCT-116), 89.7%.
Turning to `Cc1ccc(-c2cc(-c3ccccc3OS(=O)(=O)c3cccc(C(F)(F)F)c3)nn2CC(=O)N[C@H](B(O)O)C(C)C)cc1` [Compound 20, (R)-(1-(2-(5-(4-methyl-phenyl)-3-(2-(((3-trifluoromethylphenyl)sulfonyl)oxy)phenyl)-1H-pyrazol-1-yl)acetamido)isobutyl)boronic acid], the inhibition at 1 µM is 1.2% in experiment [1] (Homo sapiens, A549); 11.5% in experiment [2] (Homo sapiens, A-375); 9.2% in experiment [3] (Homo sapiens, HCT-116). Also, the inhibition at 10 µM in experiment [1] (Homo sapiens, A549) was found to be 4.2%; in experiment [2] (Homo sapiens, A-375), 61.9%; in experiment [3] (Homo sapiens, HCT-116), 85.1%.
Regarding `Cc1cc(-c2cccc(NS(=O)(=O)c3cccc(C(F)(F)F)c3)c2)nn1CC(=O)N[C@@H](CC(C)C)B(O)O` [Compound 26], the IC50 in experiment [1] came out at 3.07 µM; in experiment [2] it was 2.59 µM; in experiment [3], 1.41 µM.
`CC(C)C[C@H](NC(=O)Cn1nc(-c2ccccc2OS(=O)(=O)c2cccc(C(F)(F)F)c2)cc1-c1cccc(Br)c1)B(O)O` [Compound 14, (R)-(1-(2-(5-(3-bromophenyl)-3-(2-(((3-(trifluoromethyl)phenyl)sulfonyl)oxy)phenyl)-1H-pyrazol-1-yl)acetamido)-3-methylbutyl)boronic acid]: the inhibition at 1 µM in experiment [1] (Homo sapiens, A549) came to 10.8%; in experiment [2] (Homo sapiens, A-375), 16.5%; in experiment [3] (Homo sapiens, HCT-116) it was 9.9%. The inhibition at 10 µM in experiment [1] (Homo sapiens, A549) turned out to be 8%; in experiment [2] (Homo sapiens, A-375), 50.4%; in experiment [3] (Homo sapiens, HCT-116) it was 9.2%.
In the case of `CC(C)C[C@H](NC(=O)Cn1nc(-c2ccccc2OS(=O)(=O)c2cccc(F)c2)cc1-c1ccccc1)B(O)O` [Compound 4, (R)-(1-(2-(3-(2-(((3-fluorophenyl)sulfonyl)oxy)phenyl)-5-phenyl-1H-pyrazol-1-yl)-acetamido)-3-methylbutyl)boronic acid], the inhibition at 1 µM in experiment [1] (Homo sapiens, A549) worked out at 15%; in experiment [2] (Homo sapiens, A-375), 5.6%; in experiment [3] (Homo sapiens, HCT-116), 6.2%. For the same compound, the inhibition at 10 µM in experiment [1] (Homo sapiens, A549) came to 69.3%; in experiment [2] (Homo sapiens, A-375), 98.2%; in experiment [3] (Homo sapiens, HCT-116), 97.6%.
For the compound `CC(C)C[C@H](NC(=O)Cn1nc(-c2ccccc2OS(=O)(=O)c2cccc(C(F)(F)F)c2)cc1-c1cccs1)B(O)O` [Compound 25, (R)-(3-methyl-1-(2-(5-(thiophen-2-yl)-3-(2-(((3-(trifluoromethyl)phenyl)sulfonyl)oxy)phenyl)-1H-pyrazol-1-yl)acetamido)butyl)boronic acid], the inhibition at 1 µM in experiment [1] (Homo sapiens, A549) is 6.2%; in experiment [2] (Homo sapiens, A-375), 10.3%; in experiment [3] (Homo sapiens, HCT-116) it was 5.3%. In addition, the inhibition at 10 µM in experiment [1] (Homo sapiens, A549) was 71.2%; in experiment [2] (Homo sapiens, A-375), 97.7%; in experiment [3] (Homo sapiens, HCT-116), 97.2%.
For the compound `CC(C)C[C@H](NC(=O)Cn1nc(-c2ccccc2OS(=O)(=O)c2cccc(C(F)(F)F)c2)cc1-c1ccc(Cl)cc1)B(O)O` [Compound 17, (R)-(1-(2-(5-(4-chlorophenyl)-3-(2-(((3-(trifluoromethyl)phenyl)sulfonyl)oxy)phenyl)-1H-pyrazol-1-yl)acetamido)-3-methylbutyl)boronic acid], the inhibition at 1 µM in experiment [1] (Homo sapiens, A549) was 0.3%; in experiment [2] (Homo sapiens, A-375) it was 8.3%; in experiment [3] (Homo sapiens, HCT-116), 13.6%. Besides, the inhibition at 10 µM came to 1.9% in experiment [1] (Homo sapiens, A549); 56.1% in experiment [2] (Homo sapiens, A-375); 70.6% in experiment [3] (Homo sapiens, HCT-116).

The record behind these values is patent publication US12473305B2, “Pyrazole boronic acid compound, pharmaceutical composition containing same, and uses thereof” (BEIJING SONGRUN PHARMACEUTICAL TECHNOLOGY CO., LTD., priority 2020, dated 2025).
